Results from patent publication US12540118B2, “Dendrene amide compound, bactericide and use thereof” (Jiangsu Flag Chemical Industry Co., Ltd., priority 2020, dated 2026).

Tests used:
succinate dehydrogenase = molecular target: T1, succinate dehydrogenase (Sus scrofa, UniProt A5GZW8+D0VWV4+Q007T0); assay: Enzyme activity assay, succinate dehydrogenase (DCIP reduction); assay type: biochemical, porcine; settings: read-out: Inhibitors (10 μM, SQR)
T1 construct: isolated from porcine hearts; from tissue; host or cells: porcine heart
T1 sequence (Q0QF01 43-664 partner): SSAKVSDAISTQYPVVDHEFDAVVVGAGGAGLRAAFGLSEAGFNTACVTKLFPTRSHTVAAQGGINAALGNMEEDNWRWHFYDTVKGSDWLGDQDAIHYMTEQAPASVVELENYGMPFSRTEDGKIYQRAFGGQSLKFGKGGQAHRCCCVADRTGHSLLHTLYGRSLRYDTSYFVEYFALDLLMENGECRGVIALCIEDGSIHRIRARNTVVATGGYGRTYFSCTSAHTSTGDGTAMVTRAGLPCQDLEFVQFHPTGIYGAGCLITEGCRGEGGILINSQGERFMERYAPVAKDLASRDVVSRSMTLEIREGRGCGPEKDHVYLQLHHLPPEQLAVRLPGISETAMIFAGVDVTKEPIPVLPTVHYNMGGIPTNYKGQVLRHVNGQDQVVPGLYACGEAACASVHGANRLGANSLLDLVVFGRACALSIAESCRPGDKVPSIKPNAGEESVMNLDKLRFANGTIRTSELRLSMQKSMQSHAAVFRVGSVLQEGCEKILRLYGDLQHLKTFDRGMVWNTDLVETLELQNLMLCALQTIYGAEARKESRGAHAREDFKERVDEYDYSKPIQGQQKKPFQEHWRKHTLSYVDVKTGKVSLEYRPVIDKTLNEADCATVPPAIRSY
T1 sequence (Q007T0 29-280): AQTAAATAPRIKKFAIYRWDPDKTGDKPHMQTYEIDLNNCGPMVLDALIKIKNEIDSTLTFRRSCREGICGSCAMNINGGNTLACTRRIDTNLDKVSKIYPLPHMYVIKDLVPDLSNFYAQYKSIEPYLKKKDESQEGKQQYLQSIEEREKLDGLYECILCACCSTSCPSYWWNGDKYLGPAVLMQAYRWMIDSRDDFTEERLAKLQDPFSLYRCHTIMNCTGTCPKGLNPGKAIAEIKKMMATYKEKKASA
T1 sequence (D0VWV4 30-169): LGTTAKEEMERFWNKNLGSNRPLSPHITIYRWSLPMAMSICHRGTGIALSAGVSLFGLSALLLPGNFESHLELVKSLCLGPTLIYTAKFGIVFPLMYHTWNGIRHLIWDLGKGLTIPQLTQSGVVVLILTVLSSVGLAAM
T1 sequence (A5GZW8 57-159 limits assumed): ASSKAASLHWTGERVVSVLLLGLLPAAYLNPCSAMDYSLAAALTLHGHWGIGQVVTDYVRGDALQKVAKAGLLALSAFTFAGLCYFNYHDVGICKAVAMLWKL
Method: The inhibitory activities of control agents and target compounds on succinate dehydrogenase are determined.
The enzyme used in this test example is succinate dehydrogenase, which is isolated from porcine hearts.
The test method comprises the following steps: The total volume of the system is 1.8 ml, and the system contained 100 mM Na2HPO4—NaH2PO4 buffer (pH=7.4), 0.3 mM EDTA, 20 mM sodium succinate, 53 μM DCIP (2,6-dichloroindophenol sodium), and 2 nM succinate dehydrogenase. Thermostatic waterbath at 23° C. and magnetic stirring at 600 rpm. The decrease in the light absorption of the substrate DCIP is monitored at a wavelength of 600 nm and experimental points in a linear range are collected. Control substrate consumption not more than 5% of the experimental points. The molar extinction coefficient of DCIP is 21 mM^−1 cm^−1. And calculating the reduction yield of the DCIP in the reaction time, fitting a linear slope, and deducting the baseline slope to obtain the initial reaction speed.

Erysiphe graminis = Erysiphe graminis potting method; assay type: in vivo; settings: Blumeria graminis, read-out: Erysiphe graminis control rating; for pest or weed control at 100 µg/mL: 100 mg/L
Method: The fungicidal activity of the control agents and target compounds are determined. The test and investigation method refers to SOP-SC-1116 Erysiphe graminis potting method in disinfectant rolls written by KANGZHUO and GUBAOGEN in “Standard operation specification for testing biological activity of pesticides”.

Sphaerotheca fuliginea = Sphaerotheca fuliginea potting method; assay type: in vivo; settings: Podosphaera fuliginea; 100 mg/L; read-out: Sphaerotheca fuliginea control rating
Method: The fungicidal activity of the control agents and target compounds are determined. The test and investigation method refers to SOP-SC-1101 sphaerotheca fuliginea potting method in disinfectant rolls written by KANGZHUO and GUBAOGEN in “Standard operation specification for testing biological activity of pesticides”.

Compound | inhibition at 10 µM (succinate dehydrogenase) [%] | pest or weed control at 100 µg/mL (Erysiphe graminis) [%] | pest or weed control at 100 µg/mL (Sphaerotheca fuliginea) [%] | pest or weed control at 6.25 µg/mL (Erysiphe graminis; 6.25 mg/L) [%] | pest or weed control at 25 µg/mL (Erysiphe graminis; 25 mg/L) [%]
CC(C(=C(Cl)Cl)c1ccc(Cl)c(Cl)c1)N(C(=O)c1c(C(F)F)nn(C)c1F)C1CC1 (centres unmarked) [Compound 173] | > 90 | 80 to 100 | 80 to 100 | – | –
C=C(c1ccc(Br)cc1Br)C(C)N(C(=O)c1c(C(F)F)nn(C)c1F)C1CC1 (centres unmarked) [Compound 82] | > 90 | 80 to 100 | 80 to 100 | – | –
C=C(c1c(F)cc(F)cc1F)C(C)N(C(=O)c1c(C(F)F)nn(C)c1F)C1CC1 (centres unmarked) [Compound 79] | > 90 | 80 to 100 | 80 to 100 | – | –
CC(C(=C(Cl)Cl)c1ccc(F)cc1)N(C(=O)c1c(C(F)F)nn(C)c1F)C1CC1 (centres unmarked) [Compound 178] | > 90 | 80 to 100 | 80 to 100 | – | –
CC(C(=C(Cl)Cl)c1ccccc1S(C)(=O)=O)N(C(=O)c1c(C(F)F)nn(C)c1F)C1CC1 (centres unmarked) [Compound 214] | > 90 | 80 to 100 | 80 to 100 | – | –
C=C(c1cc(C)ccc1C(C)(C)C)C(C)N(C(=O)c1c(C(F)F)nn(C)c1F)C1CC1 (centres unmarked) [Compound 94] | > 90 | 80 to 100 | 80 to 100 | – | –
C=C(c1ccc(C)cc1)C(C)N(C(=O)c1c(C(F)F)nn(C)c1F)C1CC1 (centres unmarked) [Compound 60] | > 90 | 80 to 100 | 80 to 100 | – | –
CC(C(=C(Cl)Cl)c1ccc(Br)cc1Br)N(C(=O)c1c(C(F)F)nn(C)c1F)C1CC1 (centres unmarked) [Compound 187] | > 90 | 80 to 100 | 80 to 100 | – | –
CC(C(=C(Cl)Cl)c1ccc(C#CC2CC2)cc1Cl)N(C(=O)c1c(C(F)F)nn(C)c1F)C1CC1 (centres unmarked) [Compound 218] | > 90 | 80 to 100 | 80 to 100 | – | –
CC(C(=C(Cl)Cl)c1c(F)cccc1F)N(C(=O)c1c(C(F)F)nn(C)c1F)C1CC1 (centres unmarked) [Compound 181] | > 90 | 80 to 100 | 80 to 100 | – | –
Cc1ccccc1C(=C(Cl)Cl)C(C)N(C(=O)c1c(C(F)F)nn(C)c1F)C1CC1 (centres unmarked) [Compound 202] | > 90 | 80 to 100 | 80 to 100 | – | –
Cn1nc(C(F)F)c(C(=O)N(CC(=C(Cl)Cl)c2ccc(Br)cc2)C2CC2)c1F [Compound 131] | > 90 | 80 to 100 | 80 to 100 | – | –
C=C(c1c(Cl)cc(Cl)cc1Cl)C(C)N(C(=O)c1c(C(F)F)nn(C)c1F)C1CC1 (centres unmarked) [Compound 74] | > 90 | 80 to 100 | 80 to 100 | – | –
CC(C(=C(Cl)Cl)c1ccc(C#CC2CC2)cc1F)N(C(=O)c1c(C(F)F)nn(C)c1F)C1CC1 (centres unmarked) [Compound 219] | > 90 | 80 to 100 | 80 to 100 | – | –
Cn1nc(C(F)F)c(C(=O)N(CC(=C(Cl)Cl)c2ccc(Cl)cc2)C2CC2)c1Cl [Compound 113] | > 90 | 80 to 100 | 80 to 100 | – | –
C=C(c1ccc(C)cc1C)C(C)N(C(=O)c1c(C(F)F)nn(C)c1F)C1CC1 (centres unmarked) [Compound 88] | > 90 | 80 to 100 | 80 to 100 | – | –
C=C(c1cc(Cl)ccc1Cl)C(C)N(C(=O)c1c(C(F)F)nn(C)c1F)C1CC1 (centres unmarked) [Compound 76] | > 90 | 80 to 100 | 80 to 100 | – | –
CC(C(=C(Cl)Cl)c1c(Br)cccc1Br)N(C(=O)c1c(C(F)F)nn(C)c1F)C1CC1 (centres unmarked) [Compound 189] | > 90 | 80 to 100 | 80 to 100 | – | –
CC(C(=C(Cl)Cl)c1cc(S(C)(=O)=O)ccc1Cl)N(C(=O)c1c(C(F)F)nn(C)c1F)C1CC1 (centres unmarked) [Compound 215] | > 90 | 80 to 100 | 80 to 100 | – | –
C=C(c1ccc(Br)cc1)C(C)N(C(=O)c1c(C(F)F)nn(C)c1F)C1CC1 (centres unmarked) [Compound 66] | > 90 | 80 to 100 | 80 to 100 | – | –
Cn1nc(C(F)F)c(C(=O)N(CC(=C(Cl)Cl)c2ccc(Cl)c(Cl)c2)C2CC2)c1F [Compound 121] | > 90 | 80 to 100 | 80 to 100 | – | –
CC(C(=C(Cl)Cl)c1c(Br)cc(Br)cc1Br)N(C(=O)c1c(C(F)F)nn(C)c1F)C1CC1 (centres unmarked) [Compound 190] | > 90 | 80 to 100 | 80 to 100 | – | –
CC(C(=C(Cl)Cl)c1cccc(S(C)(=O)=O)c1)N(C(=O)c1c(C(F)F)nn(C)c1F)C1CC1 (centres unmarked) [Compound 213] | > 90 | 80 to 100 | 80 to 100 | – | –
CC(C(=C(Cl)Cl)c1ccc(Cl)cc1Cl)N(C(=O)c1c(C(F)F)nn(C)c1F)C1CC1 (centres unmarked) [Compound 170] | > 90 | 80 to 100 | 80 to 100 | – | –
CC(C(=C(Cl)Cl)c1ccc(Br)cc1)N(C(=O)c1c(C(F)F)nn(C)c1F)C1CC1 (centres unmarked) [Compound 184] | > 90 | 80 to 100 | 80 to 100 | – | –
C=C(c1ccc(F)cc1Cl)C(C)N(C(=O)c1c(C(F)F)nn(C)c1F)C1CC1 (centres unmarked) [Compound 98] | > 90 | 80 to 100 | 80 to 100 | – | –
Cc1ccc(C(C)C)cc1C(=C(Cl)Cl)C(C)N(C(=O)c1c(C(F)F)nn(C)c1F)C1CC1 (centres unmarked) [Compound 197] | > 90 | 80 to 100 | 80 to 100 | – | –

More lines, main results first:

inhibition at 10 µM (succinate dehydrogenase) [%] | Compound | pest or weed control at 100 µg/mL (Erysiphe graminis) [%] | pest or weed control at 100 µg/mL (Sphaerotheca fuliginea) [%] | pest or weed control at 6.25 µg/mL (Erysiphe graminis; 6.25 mg/L) [%] | pest or weed control at 25 µg/mL (Erysiphe graminis; 25 mg/L) [%]
> 90 | Cn1nc(C(F)F)c(C(=O)N(CC(=C(Cl)Cl)c2ccc(F)c(F)c2)C2CC2)c1F [Compound 130] | 80 to 100 | 80 to 100 | – | –
> 90 | C=C(CN(C(=O)c1c(C(F)F)nn(C)c1F)C1CC1)c1ccccc1F [Compound 20] | 80 to 100 | 80 to 100 | – | –
> 90 | C=C(CN(C(=O)c1c(C(F)F)nn(C)c1F)C1CC1)c1cccc(S(=O)(=O)CC)c1 [Compound 53] | 80 to 100 | 70 to 80 | – | –
> 90 | C=C(CN(C(=O)c1c(C(F)F)nn(C)c1F)C1CC1)c1ccc(C)cc1C [Compound 33] | 80 to 100 | 80 to 100 | – | –
> 90 | C=C(CN(C(=O)c1c(C(F)F)nn(C)c1F)C1CC1)c1c(F)cccc1F [Compound 25] | 80 to 100 | 80 to 100 | – | –
> 90 | C=C(CN(C(=O)c1c(C(F)F)nn(C)c1F)C1CC1)c1ccc(F)cc1F [Compound 23] | 80 to 100 | 80 to 100 | – | –
> 90 | C=C(CN(C(=O)c1c(C(F)F)nn(C)c1F)C1CC1)c1ccc(S(C)(=O)=O)cc1Cl [Compound 48] | 80 to 100 | 80 to 100 | – | –
> 90 | Cc1cccc(C(CN(C(=O)c2c(C(F)F)nn(C)c2F)C2CC2)=C(Cl)Cl)c1 [Compound 139] | 80 to 100 | 80 to 100 | – | –
> 90 | C=C(CN(C(=O)c1c(C(F)F)nn(C)c1F)C1CC1)c1cccc(C)c1 [Compound 32] | 80 to 100 | 70 to 80 | – | –
> 90 | C=C(c1ccccc1C(F)(F)F)C(C)N(C(=O)c1c(C(F)F)nn(C)c1F)C1CC1 (centres unmarked) [Compound 71] | 80 to 100 | 80 to 100 | – | –
> 90 | C=C(CN(C(=O)c1c(C(F)F)nn(C)c1F)C1CC1)c1ccc(C(F)(F)F)cc1Cl [Compound 47] | 80 to 100 | 80 to 100 | – | –
> 90 | C=C(CN(C(=O)c1c(C(F)F)nn(C)c1F)C1CC1)c1cccc(Br)c1 [Compound 5] | 80 to 100 | < 70 | – | –
> 90 | C=C(CN(C(=O)c1c(C(F)F)nn(C)c1F)C1CC1)c1c(C)cc(C)cc1C [Compound 36] | 80 to 100 | 80 to 100 | 80 to 100 | 80 to 100
> 90 | Cn1nc(C(F)F)c(C(=O)N(CC(=C(Cl)Cl)c2ccc(Cl)cc2Cl)C2CC2)c1F [Compound 118] | 80 to 100 | 80 to 100 | – | –
